The source made the active and inactive calls.
How the values were obtained:
[1] = target: T1, Phenylalanine--tRNA ligase beta subunit (Homo sapiens, UniProt Q9NSD9)
T1 sequence (Q9NSD9 whole entry): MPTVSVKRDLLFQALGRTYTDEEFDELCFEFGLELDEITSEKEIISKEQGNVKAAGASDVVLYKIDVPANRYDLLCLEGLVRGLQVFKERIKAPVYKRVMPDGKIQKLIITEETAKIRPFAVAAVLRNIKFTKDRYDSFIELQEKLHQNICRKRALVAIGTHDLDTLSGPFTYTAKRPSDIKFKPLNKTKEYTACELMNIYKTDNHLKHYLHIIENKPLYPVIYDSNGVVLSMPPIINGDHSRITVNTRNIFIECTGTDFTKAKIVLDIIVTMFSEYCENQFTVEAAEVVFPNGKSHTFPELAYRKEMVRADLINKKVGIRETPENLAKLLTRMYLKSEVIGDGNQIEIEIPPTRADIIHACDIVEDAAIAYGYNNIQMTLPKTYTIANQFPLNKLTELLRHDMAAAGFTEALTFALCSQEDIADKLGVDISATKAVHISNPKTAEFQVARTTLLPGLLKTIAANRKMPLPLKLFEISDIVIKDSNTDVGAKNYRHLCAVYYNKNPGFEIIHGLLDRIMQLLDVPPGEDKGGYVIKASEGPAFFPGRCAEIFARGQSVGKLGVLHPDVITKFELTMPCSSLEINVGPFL

[2] = target: T2, Serine/threonine-protein kinase TAO3 (Homo sapiens, UniProt Q9H2K8)
T2 sequence (Q9H2K8 whole entry): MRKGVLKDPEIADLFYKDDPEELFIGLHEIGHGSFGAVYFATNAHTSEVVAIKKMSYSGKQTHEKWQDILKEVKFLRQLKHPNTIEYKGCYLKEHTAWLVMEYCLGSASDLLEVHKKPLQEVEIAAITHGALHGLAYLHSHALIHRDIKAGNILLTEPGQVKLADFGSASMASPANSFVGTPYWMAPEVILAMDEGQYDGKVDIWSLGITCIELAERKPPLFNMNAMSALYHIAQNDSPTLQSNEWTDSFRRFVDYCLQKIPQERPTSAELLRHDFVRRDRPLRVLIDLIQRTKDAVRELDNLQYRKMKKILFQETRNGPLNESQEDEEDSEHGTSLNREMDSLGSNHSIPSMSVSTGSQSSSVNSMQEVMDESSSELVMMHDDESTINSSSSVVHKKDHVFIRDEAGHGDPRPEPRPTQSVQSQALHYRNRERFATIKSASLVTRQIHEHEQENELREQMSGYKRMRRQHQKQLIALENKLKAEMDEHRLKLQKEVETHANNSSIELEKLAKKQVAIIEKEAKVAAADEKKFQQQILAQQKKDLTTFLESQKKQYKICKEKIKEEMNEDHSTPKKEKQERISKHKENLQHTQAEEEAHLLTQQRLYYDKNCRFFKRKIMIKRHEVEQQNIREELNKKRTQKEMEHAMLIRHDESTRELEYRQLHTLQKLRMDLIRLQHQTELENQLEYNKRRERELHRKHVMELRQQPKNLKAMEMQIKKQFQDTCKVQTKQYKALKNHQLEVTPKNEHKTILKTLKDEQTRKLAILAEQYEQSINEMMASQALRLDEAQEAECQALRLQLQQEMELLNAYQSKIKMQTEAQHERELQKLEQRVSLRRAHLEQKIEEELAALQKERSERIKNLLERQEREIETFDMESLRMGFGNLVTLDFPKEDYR

[3] = target: T3, Beta-adrenergic receptor kinase 1 (Homo sapiens, UniProt P25098)
T3 sequence (P25098 whole entry): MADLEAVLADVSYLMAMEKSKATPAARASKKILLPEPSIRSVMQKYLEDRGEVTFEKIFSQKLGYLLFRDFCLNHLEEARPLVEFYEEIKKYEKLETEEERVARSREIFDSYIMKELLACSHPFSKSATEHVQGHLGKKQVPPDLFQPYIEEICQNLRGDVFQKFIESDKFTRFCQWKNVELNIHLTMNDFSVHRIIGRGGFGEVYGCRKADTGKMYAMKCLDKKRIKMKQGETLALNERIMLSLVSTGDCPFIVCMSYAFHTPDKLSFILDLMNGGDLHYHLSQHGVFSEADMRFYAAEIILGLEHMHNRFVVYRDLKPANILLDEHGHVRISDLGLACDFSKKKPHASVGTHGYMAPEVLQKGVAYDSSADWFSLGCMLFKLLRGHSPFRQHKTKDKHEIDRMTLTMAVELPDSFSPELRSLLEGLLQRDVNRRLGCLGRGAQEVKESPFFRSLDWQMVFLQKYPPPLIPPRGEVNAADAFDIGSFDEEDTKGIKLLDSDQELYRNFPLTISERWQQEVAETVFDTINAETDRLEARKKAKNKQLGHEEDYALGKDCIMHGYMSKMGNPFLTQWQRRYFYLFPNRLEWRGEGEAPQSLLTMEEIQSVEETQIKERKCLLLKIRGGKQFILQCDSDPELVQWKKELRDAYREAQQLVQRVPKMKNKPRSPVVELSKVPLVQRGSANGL

Measured: Kd
Further: in the data inactive means no Kd found up to 30 µM.

CO[C@H]1C[C@@H]2CC[C@@H](C)[C@@](O)(O2)C(=O)C(=O)N2CCCC[C@H]2C(=O)O[C@H]([C@H](C)C[C@@H]2CC[C@@H](OC(=O)C(C)(CO)CO)[C@H](OC)C2)CC(=O)[C@H](C)/C=C(\C)[C@@H](O)[C@@H](OC)C(=O)[C@H](C)C[C@H](C)/C=C/C=C/C=C/1C [TEMSIROLIMUS]
inactive: [1] > 30 µM | [2] > 30 µM | [3] > 30 µM

Cn1cnc2c(F)c(Nc3ccc(Br)cc3F)c(C(=O)NOCCO)cc21 [BINIMETINIB]
inactive: [1] > 30 µM | [2] > 30 µM | [3] > 30 µM

CCOc1cc2ncc(C#N)c(Nc3ccc(F)c(Cl)c3)c2cc1NC(=O)/C=C/CN(C)C [PELITINIB]
inactive: [1] > 30 µM | [2] > 30 µM | [3] > 30 µM

COc1c(OCCCN2CCOCC2)ccc2c1N=C(NC(=O)c1cnc(N)nc1)N1CCN=C21 [COPANLISIB]
inactive: [1] > 30 µM | [2] > 30 µM | [3] > 30 µM

O=c1[nH]ccc2cc(OC3CCNCC3)ccc12 [SAR-407899 FREE BASE]
inactive: [1] > 30 µM | [2] > 30 µM | [3] > 30 µM

CNC(=O)c1cccc2cc(Oc3ccnc4cc(OCC5(N)CC5)c(OC)cc34)ccc12 [LUCITANIB]
inactive: [1] > 30 µM | [2] > 30 µM | [3] > 30 µM

C=CC(=O)Nc1cc2c(Nc3ccc(F)c(Cl)c3)ncnc2cc1C#CC(C)(C)N1CCN(C)CC1 [AV-412 FREE BASE]
inactive: [1] > 30 µM | [2] > 30 µM | [3] > 30 µM

C[C@@H](NC(=O)c1ncnc(N)c1Cl)c1ncc(C(=O)Nc2cc(C(F)(F)F)c(Cl)cn2)s1 [TOVORAFENIB]
inactive: [1] > 30 µM | [2] > 30 µM | [3] > 30 µM

NC(=O)Nc1cc(-c2cccc(F)c2)sc1C(=O)N[C@H]1CCCNC1 [AZD-7762]
inactive: [1] > 30 µM | [2] > 30 µM | [3] > 30 µM

O=C(Nc1c[nH]nc1-c1nc2cc(CN3CCOCC3)ccc2[nH]1)NC1CC1 [AT-9283]
inactive: [1] > 30 µM | [2] > 30 µM | [3] > 30 µM

Cn1cc(-c2cnn3c(N)c(Br)c([C@@H]4CCCNC4)nc23)cn1 [SCH-900776]
inactive: [1] > 30 µM | [2] > 30 µM | [3] > 30 µM

CCn1c(C(=O)N(C2CC2)C2CC2)cc2c3c(ncn3C)c(Nc3cc(C)n(C)n3)nc21 [BMS-911543]
inactive: [1] > 30 µM | [2] > 30 µM | [3] > 30 µM

FC(F)(F)c1ccc(/C=C/c2nc(COc3ccc(CCCCn4ccnn4)cc3)co2)cc1 [MUBRITINIB]
inactive: [1] > 30 µM | [2] > 30 µM | [3] > 30 µM
